From patent US20020090352A1, “Compositions and methods for use in modulating immune system function” (priority 2000, published 2002)
Peptide text beside a SMILES is read from it. * marks the point of attachment. Cbz = O=C(OCc1ccccc1)*; CH2F = FC*

Assays:
[1] = tested on: immature LC (Langerhans cells); test: Apoptosis of immature LC, flow cytometry of PI stained nuclei (sub 2N particles) / annexin V; type: cell-based, human; details: for percentage of apoptotic (<2N) particles: Cmpd. II 1 μM, Cmpd. VIII 1 μM, Z-Vad 50 μM, TNFα 10 ng/ml, CD40L coculture
[2] = tested on: immature LC (Langerhans cells); test: Survival of immature LC, viable cell count with trypan blue exclusion; details: 1000 nM tRA; Compound II 1000 nM, Z-Vad-fmk 50 nM

SMILES: COC(=O)C[C@H](NC(=O)[C@H](C)NC(=O)[C@@H](NC(=O)OCc1ccccc1)C(C)C)C(=O)CF [Z-Vad-fmk, reference compound] (Cbz-Val-Ala-Asp(OMe)-CH2F)
- percentage of apoptotic (<2N) particles ([1]; agent + Cmpd. I 1 μM): 9 ± 7%
- percentage of apoptotic (<2N) particles ([1]; agent + Compound I 100 nM + SR11237 100 nM): 11 ± 4%
- percentage of apoptotic (<2N) particles ([1]; agent + tRA 1 μM): 9 ± 4%
- percentage of apoptotic (<2N) particles ([1]; agent alone (column 0)): ≦5%
- inhibition of retinoid-induced apoptosis / cell death of immature LC ([1]; result in words): blocked
- inhibition of tRA mortality [2]: > 80%
